In patent publication US10759766B2, “Certain chemical entities, compositions, and methods” (NeuPharma, Inc., priority 2011, dated 2020):

Experiments:
A375 cells = experiment: Inhibition of cancer cell growth, MTT assay, A375; assay type: cell-based; conditions: Homo sapiens, A-375, 72 h exposure
Method: (§1) Inhibition of cell growth by compounds was measured using MTT assay (Mosmann, T., Journal of Immunological Methods, 1983, 65, 55-63). Tumor cell lines were purchased from ATCC (American Type Culture Collection, Manassas, Va.). All cell lines were maintained in RPMI 1640 (Hyclone) supplemented with 10% fetal bovine serum (FBS, Hyclone), glutamine (2 mM, Hyclone), and antibiotics (penicillin 100 U/mL and streptomycin 50 μg/mL) at 37° C. in a humidified atmosphere of 5% CO2 in air. Taxol (as a positive control, Sigma) and compounds were dissolved in DMSO (Sigma), and the final concentration of DMSO in the medium was 1%. Tumor cells were plated in 96-well plates at densities of about 4000 cells/well of a 96-well plate and allowed to adhere/grow for 24 h. They were then treated with various concentrations of drug for 72 h. 3-(4,5-Dimethylthiazol-2-yl)-2,5-diphenyltetrazolium bromide (MTT, Sigma) was used to determine the number of viable cells at the time of compound addition and the number of cells remaining after 72 h compound exposure. The number of cells remaining after 72 h was compared to the number of viable cells at the time of compound addition by measuring the absorbance at 570 nm, allowing for the calculation of growth inhibition.
(§2) All concentrations of compounds were tested in triplicate and controls were averaged over 4 wells. IC50 was calculated by plotting the concentration of compound vs the percentage of inhibition in treated wells using GraphPad Prism 5. […] The scale utilized in Table 6 is as follows: +++ less than 1000 nM; ++ between 1000 nM and 5000 nM; and + greater than 5000 nM. The scale utilized in Table 7 is as follows: +++ less than 2000 nM; ++ between 2000 nM and 5000 nM; and + greater than 5000 nM.

KDR (VEGFR2) = KDR (VEGFR2) (Homo sapiens (Human), UniProt P35968); experiment: Z′-LYTE kinase inhibition assay (Invitrogen), KDR; assay type: biochemical; conditions: 1 μM compound, Z′-LYTE method; read-out: % inhibition at 1 μM against KDR
Method: (§3) Inhibitory activities Inhibitory activities of compounds against BRAF, and BRAF V600E were measured by Invitrogen using Z′-LYTE® Method as briefly described in the following. 4× Test compounds are dissolved in 1% DMSO. […] ATP solutions are diluted to a 4×ATP working concentration in Kinase Buffer (50 mM HEPES pH 7.5, 0.01% BRIJ-35, 10 mM MgCl2, 1 mM EGTA). Reaction started by 30-second shaking of mixture consisting of 2.5 μL 4× test compound, […] and 2.5 μL 4×ATP Solution on Bar-coded Corning, low volume NBS, black 384-well plate (Corning Cat. #3676). Then the mixture was incubated for 60-minute at room temperature for the kinase reaction, followed by addition of 5 μL of a 1:1024 dilution of development reagent A and 30-second plate shake. The mixture was then incubated for another 60-minute at room temperature for development reaction. Fluorescence was read by plate reader. IC50 was calculated by plotting the concentration of compound vs the percentage of inhibition in treated wells using GraphPad Prism 5.
Inhibitory activities of compounds against KDR (VEGFR2) were also measured by Invitrogen using Z′-LYTE® Method as described above with the following modification. The 2× KDR (VEGFR2)/Tyr 01 mixture is prepared in 50 mM HEPES pH 7.5, 0.01% BRIJ-35, 10 mM MgCl2, 1 mM EGTA. The final 10 μL Kinase Reaction consists of 0.5-11.7 ng KDR (VEGFR2) and 2 μM Tyr 01 in 50 mM HEPES pH 7.5, 0.01% BRIJ-35, 10 mM MgCl2, 1 mM EGTA. After the 1 hour Kinase Reaction incubation, 5 μL of a 1:256 dilution of Development Reagent B is added.
The scale utilized in Table 5 is as follows: +++ less than 100 nM; and ++ greater than 100 nM

BRAF V600E = BRAF V600E (Homo sapiens (Human), UniProt P15056, V600E); experiment: Z′-LYTE kinase inhibition assay (Invitrogen), BRAF V600E; assay type: biochemical; conditions: 1 μM compound, Z′-LYTE method; read-out: % inhibition at 1 μM against BRAF V600E
Method: as §3
The scale utilized in Table 3 is as follows: +++ less than 100 nM; and ++ greater than 100 nM.

A549 cells = experiment: Inhibition of cancer cell growth, MTT assay, A549; assay type: cell-based; conditions: Homo sapiens, A549, 72 h exposure
Method: as §1, §2

Chain of BRAF V600E (P15056 whole entry V600E): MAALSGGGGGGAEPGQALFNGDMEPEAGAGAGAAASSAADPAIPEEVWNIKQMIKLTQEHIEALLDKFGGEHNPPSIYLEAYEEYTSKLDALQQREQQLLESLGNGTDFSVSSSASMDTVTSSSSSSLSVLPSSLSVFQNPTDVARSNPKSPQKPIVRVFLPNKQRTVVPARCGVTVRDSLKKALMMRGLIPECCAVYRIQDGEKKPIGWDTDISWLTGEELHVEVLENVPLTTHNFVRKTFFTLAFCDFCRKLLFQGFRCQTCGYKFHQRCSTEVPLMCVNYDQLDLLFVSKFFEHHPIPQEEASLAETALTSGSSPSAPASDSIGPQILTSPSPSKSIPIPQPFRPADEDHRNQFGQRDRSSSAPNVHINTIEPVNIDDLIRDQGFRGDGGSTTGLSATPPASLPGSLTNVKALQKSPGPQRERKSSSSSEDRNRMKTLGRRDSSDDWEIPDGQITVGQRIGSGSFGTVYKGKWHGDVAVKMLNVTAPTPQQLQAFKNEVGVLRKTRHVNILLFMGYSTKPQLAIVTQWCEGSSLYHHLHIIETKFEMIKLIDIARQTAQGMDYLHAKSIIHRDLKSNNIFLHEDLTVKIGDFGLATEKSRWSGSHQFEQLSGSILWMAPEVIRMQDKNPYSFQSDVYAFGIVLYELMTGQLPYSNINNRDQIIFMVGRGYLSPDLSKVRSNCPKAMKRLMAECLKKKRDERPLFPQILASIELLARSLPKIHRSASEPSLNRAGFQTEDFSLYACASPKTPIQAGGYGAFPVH
Chain of KDR (VEGFR2) (P35968 20-1356): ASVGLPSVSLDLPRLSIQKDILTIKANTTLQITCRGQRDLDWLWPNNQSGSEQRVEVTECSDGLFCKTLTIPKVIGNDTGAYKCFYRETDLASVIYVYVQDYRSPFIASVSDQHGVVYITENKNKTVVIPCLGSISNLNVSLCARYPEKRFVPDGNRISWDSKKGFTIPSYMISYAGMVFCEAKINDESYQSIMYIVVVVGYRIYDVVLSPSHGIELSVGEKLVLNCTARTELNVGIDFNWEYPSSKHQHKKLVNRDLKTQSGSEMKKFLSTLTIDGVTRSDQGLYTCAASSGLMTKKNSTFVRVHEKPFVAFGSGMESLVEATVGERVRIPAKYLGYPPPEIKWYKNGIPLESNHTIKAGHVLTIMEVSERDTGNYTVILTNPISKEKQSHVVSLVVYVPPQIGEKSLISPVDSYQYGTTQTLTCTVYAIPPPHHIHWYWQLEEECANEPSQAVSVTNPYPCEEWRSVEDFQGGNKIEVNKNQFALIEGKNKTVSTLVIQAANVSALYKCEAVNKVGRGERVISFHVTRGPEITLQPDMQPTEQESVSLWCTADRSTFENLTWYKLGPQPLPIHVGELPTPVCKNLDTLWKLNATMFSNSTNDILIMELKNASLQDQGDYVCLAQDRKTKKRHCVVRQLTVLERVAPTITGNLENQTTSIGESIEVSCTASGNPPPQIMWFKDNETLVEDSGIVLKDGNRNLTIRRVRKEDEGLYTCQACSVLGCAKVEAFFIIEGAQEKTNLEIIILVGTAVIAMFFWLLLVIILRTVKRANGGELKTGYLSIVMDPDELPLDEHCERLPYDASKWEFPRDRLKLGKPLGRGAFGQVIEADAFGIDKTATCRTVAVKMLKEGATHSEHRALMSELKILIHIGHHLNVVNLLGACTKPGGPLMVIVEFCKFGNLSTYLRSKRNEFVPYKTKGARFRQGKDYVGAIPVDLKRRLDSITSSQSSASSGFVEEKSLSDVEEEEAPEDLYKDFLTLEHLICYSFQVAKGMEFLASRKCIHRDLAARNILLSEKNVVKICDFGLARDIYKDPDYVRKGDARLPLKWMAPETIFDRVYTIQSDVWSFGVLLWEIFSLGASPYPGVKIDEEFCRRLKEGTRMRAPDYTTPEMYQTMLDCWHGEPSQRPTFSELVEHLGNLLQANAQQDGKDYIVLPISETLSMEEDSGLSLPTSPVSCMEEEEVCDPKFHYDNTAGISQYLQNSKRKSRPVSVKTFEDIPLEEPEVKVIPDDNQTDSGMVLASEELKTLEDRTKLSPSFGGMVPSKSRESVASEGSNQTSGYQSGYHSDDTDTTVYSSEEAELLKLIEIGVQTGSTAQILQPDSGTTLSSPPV

IC50 (A375 cells)	inhibition at 1 µM (KDR (VEGFR2))	inhibition at 1 µM (BRAF V600E)	IC50 (A549 cells)	Structure (SMILES)
1 to 5 µM	> 89%	> 89%	> 5 µM	O=C(Nc1ccc(F)c(C(=O)c2ccc3ncc(N4CCOCC4)nc3c2)c1)c1cccc(F)c1 [Compound C136]
< 1 µM	> 89%	> 89%	< 2 µM	O=C(Nc1ccc(F)c(Cl)c1)Nc1ccc(F)c(C(=O)c2ccc3ncc(N4CCOCC4)nc3c2)c1 [Compound C055, 1-(3-chloro-4-fluorophenyl)-3-(4-fluoro-3-(3-morpholinoquinoxaline-6-carbonyl)phenyl)urea]
1 to 5 µM	70 to 89%	70 to 89%	2 to 5 µM	O=C(Nc1cc(F)cc(C(=O)c2ccc3ncc(N4CCOCC4)nc3c2)c1)c1cccc(F)c1 [Compound C142, 3-fluoro-N-(3-fluoro-5-(3-morpholinoquinoxaline-6-carbonyl)phenyl)benzamide]
1 to 5 µM	> 89%	> 89%	> 5 µM	O=C(Nc1ccc(F)cc1)Nc1ccc(F)c(C(=O)c2ccc3nccnc3c2)c1 [Compound C070, 1-(4-fluoro-3-(quinoxaline-6-carbonyl)phenyl)-3-(4-fluorophenyl)urea]

Further lines, the compound ahead of its results:

Structure (SMILES)	IC50 (A375 cells)	inhibition at 1 µM (KDR (VEGFR2))	inhibition at 1 µM (BRAF V600E)	IC50 (A549 cells)
O=C(Nc1cc(F)c(F)c(C(=O)c2ccc3ncc(N4CCOCC4)nc3c2)c1F)c1cccc(C(F)(F)F)c1 [Compound C138, N-(2,4,5-trifluoro-3-(3-morpholinoquinoxaline-6-carbonyl)phenyl)-3-(trifluoromethyl)benzamide]	1 to 5 µM	> 89%	70 to 89%	> 5 µM
O=C(Nc1ccc(F)c(C(=O)c2ccc3nccnc3c2)c1F)c1cccc(F)c1 [Compound C113, N-(2,4-difluoro-3-(quinoxaline-6-carbonyl)phenyl)-3-fluorobenzamide]	> 5 µM	< 70%	70 to 89%	> 5 µM
O=C(Nc1ccc(F)c(C(=O)c2ccc3nccnc3c2)c1)c1cccc(F)c1 [Compound C115, 3-fluoro-N-(4-fluoro-3-(quinoxaline-6-carbonyl)phenyl)benzamide]	> 5 µM	70 to 89%	> 89%	> 5 µM
O=C(Nc1ccc(C(F)(F)F)cc1)Nc1ccc(F)c(C(=O)c2ccc3ncc(N4CCOCC4)nc3c2)c1 [Compound C057, 1-(4-fluoro-3-(3-morpholinoquinoxaline-6-carbonyl)phenyl)-3-(4-(trifluoromethyl)phenyl)urea]	< 1 µM	> 89%	> 89%	< 2 µM
O=C(Nc1ccc(Cl)cc1)Nc1ccc(F)c(C(=O)c2ccc3ncc(N4CCOCC4)nc3c2)c1 [Compound C054, 1-(4-chlorophenyl)-3-(4-fluoro-3-(3-morpholinoquinoxaline-6-carbonyl)phenyl)urea]	< 1 µM	> 89%	> 89%	< 2 µM
O=C(Nc1ccc(F)cc1)Nc1cc(F)cc(C(=O)c2ccc3ncc(N4CCOCC4)nc3c2)c1 [Compound C043, 1-(3-fluoro-5-(3-morpholinoquinoxaline-6-carbonyl)phenyl)-3-(4-fluorophenyl)urea]	> 5 µM	< 70%	> 89%	> 5 µM
O=C(Nc1cc(F)c(F)c(C(=O)c2ccc3nccnc3c2)c1F)c1ccc(Cl)c(C(F)(F)F)c1 [Compound C140, 4-chloro-N-(2,4,5-trifluoro-3-(quinoxaline-6-carbonyl)phenyl)-3-(trifluoromethyl)benzamide]	> 5 µM	< 70%	70 to 89%	> 5 µM
O=C(Nc1ccc(C(F)(F)F)cc1)Nc1cc(F)cc(C(=O)c2ccc3nccnc3c2)c1 [Compound C066, 1-(3-fluoro-5-(quinoxaline-6-carbonyl)phenyl)-3-(4-(trifluoromethyl)phenyl)urea]	1 to 5 µM	< 70%	> 89%	2 to 5 µM
